Assay results taken from the supplement of paper PMC13207355.

What was measured:
Details in all cases: exposure time: 72 h
[1] = system: E21 (patient-derived glioblastoma stem cells of mesenchymal subtype); test: phenotypic distance (Euclidean, principal components) from DMSO controls (arbitrary units); higher = stronger morphological change
[2] = system: E31 (patient-derived glioblastoma stem cells of proneural subtype); test: as above
[3] = system: E13 (patient-derived glioblastoma stem cells of classical subtype); test: as above
[4] = system: E57 (patient-derived glioblastoma stem cells of mesenchymal subtype); test: as above
[5] = system: E28 (patient-derived glioblastoma stem cells of classical subtype); test: as above
[6] = system: E34 (patient-derived glioblastoma stem cells of proneural subtype); test: as above
[7] = system: FT3469 (normal neural stem cell line); test: as above
[8] = system: E21; test: surviving fraction (nuclei count normalised to DMSO); higher = more cells surviving (less toxic)
[9] = system: E31; test: as above
[10] = system: E13; test: as above
[11] = system: E57; test: as above
[12] = system: E28; test: as above
[13] = system: E34; test: as above
[14] = system: FT3469; test: as above
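Wherever phenotypic distance (Euclidean, principal components) from DMSO controls is given: cell Painting imaging in 384-well plates, CellProfiler features reduced to at least 20 principal components, Euclidean distance versus same-plate DMSO vehicle wells (0.1% v/v), median over six images per well.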
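Wherever surviving fraction (nuclei count normalised to DMSO) is given: nuclei counted by high-content imaging of Hoechst-stained cells in laminin-coated 384-well plates, relative to 0.1% DMSO vehicle wells, with staurosporine as cell-death control.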

Clc1ccc(CSC(Cn2ccnc2)c2ccc(Cl)cc2Cl)cc1 (centres undefined) [Sulconazole nitrate]
Details	phenotypic distance	surviving fraction
[1], 4.1 nM	0.971	–
[1], 12.3 nM	4.31	–
[1], 37 nM	0.531	–
[1], 111.1 nM	0.857	–
[1], 333.3 nM	1.11	–
[1], 1000 nM	0.859	–
[1], 3000 nM	1.68	–
[2], 4.1 nM	0.532	–
[2], 12.3 nM	0.425	–
[2], 37 nM	0.596	–
[2], 111.1 nM	0.731	–
[2], 333.3 nM	1.14	–
[2], 1000 nM	1.17	–
[2], 3000 nM	1.4	–
[3], 4.1 nM	0.507	–
[3], 12.3 nM	0.659	–
[3], 37 nM	0.68	–
[3], 111.1 nM	0.822	–
[3], 333.3 nM	1.02	–
[3], 1000 nM	1.17	–
[3], 3000 nM	0.957	–
[4], 4.1 nM	0.709	–
[4], 12.3 nM	0.952	–
[4], 37 nM	0.398	–
[4], 111.1 nM	0.55	–
[4], 333.3 nM	0.671	–
[4], 1000 nM	0.779	–
[4], 3000 nM	1.99	–
[5], 4.1 nM	0.745	–
[5], 12.3 nM	0.557	–
[5], 37 nM	0.545	–
[5], 111.1 nM	0.553	–
[5], 333.3 nM	0.469	–
[5], 1000 nM	0.567	–
[5], 3000 nM	0.697	–
[6], 4.1 nM	1.17	–
[6], 12.3 nM	0.4	–
[6], 37 nM	0.413	–
[6], 111.1 nM	0.586	–
[6], 333.3 nM	0.864	–
[6], 1000 nM	0.895	–
[6], 3000 nM	1.02	–
[7], 4.1 nM	0.821	–
[7], 12.3 nM	0.617	–
[7], 37 nM	0.893	–
[7], 111.1 nM	0.999	–
[7], 333.3 nM	1.06	–
[7], 1000 nM	0.92	–
[7], 3000 nM	1.39	–
[8], 4.1 nM	–	0.956
[8], 12.3 nM	–	1.01
[8], 37 nM	–	1.03
[8], 111.1 nM	–	0.956
[8], 333.3 nM	–	0.962
[8], 1000 nM	–	0.952
[8], 3000 nM	–	0.859
[9], 4.1 nM	–	0.929
[9], 12.3 nM	–	0.922
[9], 37 nM	–	1.01
[9], 111.1 nM	–	1.02
[9], 333.3 nM	–	0.984
[9], 1000 nM	–	1.09
[9], 3000 nM	–	1.17
[10], 4.1 nM	–	0.897
[10], 12.3 nM	–	0.833
[10], 37 nM	–	0.964
[10], 111.1 nM	–	0.887
[10], 333.3 nM	–	0.841
[10], 1000 nM	–	0.82
[10], 3000 nM	–	0.799
[11], 4.1 nM	–	0.975
[11], 12.3 nM	–	0.945
[11], 37 nM	–	0.995
[11], 111.1 nM	–	0.972
[11], 333.3 nM	–	1.07
[11], 1000 nM	–	1.03
[11], 3000 nM	–	0.934
[12], 4.1 nM	–	0.969
[12], 12.3 nM	–	0.978
[12], 37 nM	–	0.902
[12], 111.1 nM	–	0.886
[12], 333.3 nM	–	0.956
[12], 1000 nM	–	0.917
[12], 3000 nM	–	0.839
[13], 4.1 nM	–	0.824
[13], 12.3 nM	–	1.02
[13], 37 nM	–	0.954
[13], 111.1 nM	–	0.957
[13], 333.3 nM	–	0.909
[13], 1000 nM	–	0.932
[13], 3000 nM	–	0.766
[14], 4.1 nM	–	0.831
[14], 12.3 nM	–	1.03
[14], 37 nM	–	0.945
[14], 111.1 nM	–	0.801
[14], 333.3 nM	–	0.934
[14], 1000 nM	–	0.869
[14], 3000 nM	–	0.734

OC[C@H]1NC[C@H](O)[C@@H](O)[C@@H]1O [1-Deoxynojirimycin]
Details	phenotypic distance	surviving fraction
[1], 4.1 nM	0.765	–
[1], 12.3 nM	0.361	–
[1], 37 nM	0.681	–
[1], 111.1 nM	0.62	–
[1], 333.3 nM	0.677	–
[1], 1000 nM	0.652	–
[1], 3000 nM	0.534	–
[2], 4.1 nM	0.644	–
[2], 12.3 nM	0.558	–
[2], 37 nM	0.579	–
[2], 111.1 nM	0.597	–
[2], 333.3 nM	0.552	–
[2], 1000 nM	0.479	–
[2], 3000 nM	0.614	–
[3], 4.1 nM	0.633	–
[3], 12.3 nM	0.606	–
[3], 37 nM	0.865	–
[3], 111.1 nM	0.487	–
[3], 333.3 nM	0.742	–
[3], 1000 nM	0.501	–
[3], 3000 nM	0.63	–
[4], 4.1 nM	0.636	–
[4], 12.3 nM	0.609	–
[4], 37 nM	0.696	–
[4], 111.1 nM	0.505	–
[4], 333.3 nM	0.518	–
[4], 1000 nM	0.442	–
[4], 3000 nM	0.63	–
[5], 4.1 nM	1.27	–
[5], 12.3 nM	1.73	–
[5], 37 nM	0.489	–
[5], 111.1 nM	0.561	–
[5], 333.3 nM	0.769	–
[5], 1000 nM	0.642	–
[5], 3000 nM	0.664	–
[6], 4.1 nM	1.35	–
[6], 12.3 nM	0.664	–
[6], 37 nM	0.60231	–
[6], 111.1 nM	0.433	–
[6], 333.3 nM	0.758	–
[6], 1000 nM	0.619	–
[6], 3000 nM	0.541	–
[7], 4.1 nM	0.939	–
[7], 12.3 nM	0.685	–
[7], 37 nM	0.554	–
[7], 111.1 nM	0.511	–
[7], 333.3 nM	0.634	–
[7], 1000 nM	0.682	–
[7], 3000 nM	0.673	–
[8], 4.1 nM	–	0.994
[8], 12.3 nM	–	1.02
[8], 37 nM	–	0.9516
[8], 111.1 nM	–	0.977
[8], 333.3 nM	–	1.04
[8], 1000 nM	–	0.995
[8], 3000 nM	–	0.914
[9], 4.1 nM	–	0.951
[9], 12.3 nM	–	0.95
[9], 37 nM	–	0.979
[9], 111.1 nM	–	0.918
[9], 333.3 nM	–	0.988
[9], 1000 nM	–	1.03
[9], 3000 nM	–	0.988
[10], 4.1 nM	–	0.97
[10], 12.3 nM	–	0.945
[10], 37 nM	–	0.8513
[10], 111.1 nM	–	0.99
[10], 333.3 nM	–	1.01
[10], 1000 nM	–	1.01
[10], 3000 nM	–	0.963
[11], 4.1 nM	–	0.9939
[11], 12.3 nM	–	0.961
[11], 37 nM	–	0.936
[11], 111.1 nM	–	0.955
[11], 333.3 nM	–	1.03
[11], 1000 nM	–	0.978
[11], 3000 nM	–	0.9675
[12], 4.1 nM	–	1.02
[12], 12.3 nM	–	1.01
[12], 37 nM	–	1.009
[12], 111.1 nM	–	1.05
[12], 333.3 nM	–	1.04
[12], 1000 nM	–	0.997
[12], 3000 nM	–	1.02
[13], 4.1 nM	–	1.02
[13], 12.3 nM	–	0.878
[13], 37 nM	–	0.9719
[13], 111.1 nM	–	0.948
[13], 333.3 nM	–	0.937
[13], 1000 nM	–	0.997
[13], 3000 nM	–	1.02
[14], 4.1 nM	–	0.965
[14], 12.3 nM	–	0.951
[14], 37 nM	–	0.953
[14], 111.1 nM	–	1.02
[14], 333.3 nM	–	0.889
[14], 1000 nM	–	1.04
[14], 3000 nM	–	0.9

COC(=O)Nc1nc2cc(C(=O)c3ccccc3)ccc2[nH]1 [Mebendazole]
Details	phenotypic distance	surviving fraction
[1], 4.1 nM	1.49	–
[1], 12.3 nM	1.54	–
[1], 37 nM	1.52	–
[1], 111.1 nM	2.75	–
[1], 333.3 nM	7.72	–
[1], 1000 nM	7.67	–
[1], 3000 nM	6.82	–
[2], 4.1 nM	1.27	–
[2], 12.3 nM	0.909	–
[2], 37 nM	1.1	–
[2], 111.1 nM	2.77	–
[2], 333.3 nM	5.6	–
[2], 1000 nM	5.55	–
[2], 3000 nM	4.51	–
[3], 4.1 nM	1.43	–
[3], 12.3 nM	1.24	–
[3], 37 nM	2.04	–
[3], 111.1 nM	4.4	–
[3], 333.3 nM	7.15	–
[3], 1000 nM	6.93	–
[3], 3000 nM	7.2	–
[4], 4.1 nM	1.09	–
[4], 12.3 nM	0.846	–
[4], 37 nM	1.77	–
[4], 111.1 nM	2.71	–
[4], 333.3 nM	5.36	–
[4], 1000 nM	5.62	–
[4], 3000 nM	4.64	–
[5], 4.1 nM	0.755	–
[5], 12.3 nM	0.838	–
[5], 37 nM	1.05	–
[5], 111.1 nM	2.06	–
[5], 333.3 nM	3.8	–
[5], 1000 nM	4.27	–
[5], 3000 nM	4.73	–
[6], 4.1 nM	0.931	–
[6], 12.3 nM	0.785	–
[6], 37 nM	1.36	–
[6], 111.1 nM	2.23	–
[6], 333.3 nM	3.56	–
[6], 1000 nM	3.98	–
[6], 3000 nM	6.31	–
[7], 4.1 nM	0.995	–
[7], 12.3 nM	0.806	–
[7], 37 nM	0.927	–
[7], 111.1 nM	2.1	–
[7], 333.3 nM	3.21	–
[7], 1000 nM	3.43	–
[7], 3000 nM	3.34	–
[8], 4.1 nM	–	0.964
[8], 12.3 nM	–	0.942
[8], 37 nM	–	0.868
[8], 111.1 nM	–	0.707
[8], 333.3 nM	–	0.138
[8], 1000 nM	–	0.144
[8], 3000 nM	–	0.187
[9], 4.1 nM	–	0.817
[9], 12.3 nM	–	0.859
[9], 37 nM	–	0.71
[9], 111.1 nM	–	0.417
[9], 333.3 nM	–	0.132
[9], 1000 nM	–	0.1
[9], 3000 nM	–	0.114
[10], 4.1 nM	–	0.79
[10], 12.3 nM	–	0.88
[10], 37 nM	–	0.816
[10], 111.1 nM	–	0.465
[10], 333.3 nM	–	0.22
[10], 1000 nM	–	0.203
[10], 3000 nM	–	0.221
[11], 4.1 nM	–	1
[11], 12.3 nM	–	1.06
[11], 37 nM	–	0.876
[11], 111.1 nM	–	0.784
[11], 333.3 nM	–	0.148
[11], 1000 nM	–	0.0727
[11], 3000 nM	–	0.092
[12], 4.1 nM	–	1.01
[12], 12.3 nM	–	0.992
[12], 37 nM	–	0.943
[12], 111.1 nM	–	0.731
[12], 333.3 nM	–	0.444
[12], 1000 nM	–	0.288
[12], 3000 nM	–	0.426
[13], 4.1 nM	–	0.922
[13], 12.3 nM	–	0.961
[13], 37 nM	–	0.917
[13], 111.1 nM	–	0.664
[13], 333.3 nM	–	0.432
[13], 1000 nM	–	0.403
[13], 3000 nM	–	0.384
[14], 4.1 nM	–	0.984
[14], 12.3 nM	–	1.02
[14], 37 nM	–	0.772
[14], 111.1 nM	–	0.663
[14], 333.3 nM	–	0.648
[14], 1000 nM	–	0.56
[14], 3000 nM	–	0.566
